{
  "source": "patent US20250154141A1",
  "about": "(University of Florida Research Foundation, Incorporated, priority 2021, published 2025)",
  "key": {"MOLT-4": {"test_system": "MOLT-4", "assay": "Cell viability assay (MTS) in MOLT-4 cells", "assay_type": "cell-based", "settings": "Homo sapiens, MOLT-4; Table 2; 48 hr; MTS; read-out: Anti-Cancer Activity IC50 (48 hr) MOLT-4", "description": "(§1) Acute lymphoblastic leukemia cells (MOLT-4 and RS4; 11) were incubated with increasing concentrations of Bcl-xL degraders for 48 h. Cell viability was measured by tetrazolium-based MTS assay."}, "RS4; 11": {"test_system": "RS4; 11", "assay": "Cell viability assay (MTS) in RS4; 11 cells", "assay_type": "cell-based", "settings": "Homo sapiens, RS4-11; Table 2; 48 hr; MTS; read-out: Anti-Cancer Activity IC50 (48 hr) RS4; 11", "description": "as §1"}, "[1]": {"biological_target": "VCB E3 ligase complex and Bcl-xL (Homo sapiens, UniProt P40337+Q07817)", "sequence (Q07817 whole entry)": "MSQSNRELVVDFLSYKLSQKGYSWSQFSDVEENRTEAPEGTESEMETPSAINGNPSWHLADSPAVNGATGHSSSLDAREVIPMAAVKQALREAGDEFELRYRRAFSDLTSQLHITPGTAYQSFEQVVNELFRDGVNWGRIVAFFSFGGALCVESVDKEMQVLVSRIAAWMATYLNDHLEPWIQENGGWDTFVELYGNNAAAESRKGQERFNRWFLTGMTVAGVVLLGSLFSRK", "sequence (P40337 whole entry)": "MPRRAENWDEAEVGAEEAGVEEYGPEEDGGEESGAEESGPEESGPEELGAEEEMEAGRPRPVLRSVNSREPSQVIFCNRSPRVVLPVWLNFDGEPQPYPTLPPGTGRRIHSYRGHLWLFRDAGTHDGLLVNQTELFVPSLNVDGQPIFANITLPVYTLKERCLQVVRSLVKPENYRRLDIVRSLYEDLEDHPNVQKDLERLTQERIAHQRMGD", "sequence (Q15370 whole entry partner)": "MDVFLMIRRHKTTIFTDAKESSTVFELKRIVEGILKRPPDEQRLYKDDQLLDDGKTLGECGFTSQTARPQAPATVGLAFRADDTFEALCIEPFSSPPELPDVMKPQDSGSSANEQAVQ", "sequence (Q15369 whole entry partner)": "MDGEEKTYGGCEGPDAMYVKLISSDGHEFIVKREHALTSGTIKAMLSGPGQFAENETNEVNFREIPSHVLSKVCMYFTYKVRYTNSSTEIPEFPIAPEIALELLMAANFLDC", "assay": "Ternary complex assay (AlphaLISA)", "assay_type": "binding", "settings": "FIG. 5A", "description": "To detect ternary complex formation induced by the compounds, AIphaLISA assay was used to measure luminescence signals arisen from proximity of Bcl-xL bounded acceptor beads and VHL- or CRBN—bounded donor beads. Briefly, to a 96-well PCR plate, 10 μL of 20 nM 6-His tagged Bcl-xL protein can be mixed with 10 μL of 20 nM GST-tagged VHL complex protein and 10 μL of serially diluted testing compounds. After incubating at room temperature for 30 […], 5 μL of 160 μg/mL Glutathione donor beads (PerkinEImer) was added and the mixture was incubated at dark for 15 min. 5 μL of 160 μg/mL of anti-His acceptor beads was added lastly and the mixture was incubated for an additional 45 min before being transferred to two adjacent wells (17 μL each) of 384-well white OptiPIate (PerkinEImer). The luminescence signals were detected on a Biotek's Synergy Neo2 multi-mode plate reader installed with an AphaScreen filter cube. All reagents were diluted in an assay buffer of 25 mM HEPES, pH 7.5, 100 mM NaCl, 0.1% BSA, and 0.005% tween 20 prior incubation."}, "Bcl-xL [2]": {"biological_target": "T1, Bcl-xL (Homo sapiens, UniProt Q07817)", "T1 sequence (Q07817 whole entry)": "as the sequence (Q07817 whole entry) above", "assay": "Protein degradation assay in Jurkat cells (Western blot), Bcl-xL", "assay_type": "cell-based", "set-up": "endogenous in cells; host or cells: Jurkat cells", "description": "(§2) Jurkat cells and human platelets were incubated with increasing concentrations of test compounds for 16 h. The cells were harvested and lysed in RIPA lysis buffer supplemented with protease and phosphatase inhibitor cocktails. An equal amount of protein ([…]) was resolved on a pre-cast 4-20% SDS-PAGE gel. Proteins were subsequently transferred to NOVEX PVDF membranes by electrophoresis. The membranes were blocked in blocking buffer (5% non-fat dry milk in TBS-T), and incubated with primary antibodies (at optimized concentrations) overnight at 4° C. After three washings in TBS-T, the membranes were incubated with an appropriate FIRP-conjugated secondary antibody for 1 h at room temperature. After extensive washing for three times, the proteins of interest was detected with ECL western blotting detection reagents and recorded with autoradiography (Pierce Biotech, Rockford, IL, USA). The primary antibodies for Bcl-xL (Cat #2762), Bcl-2 (Cat #2872), Mcl-1 (Cat #5453) and j-actin (Cat #4970) were purchased from Cell Signaling Technology. The relative band intensity was measured using ImageJ software and normalized to β-actin."}, "Bcl-2 [3]": {"biological_target": "T2, Bcl-2 (Homo sapiens, UniProt P10415)", "T2 sequence (P10415 whole entry)": "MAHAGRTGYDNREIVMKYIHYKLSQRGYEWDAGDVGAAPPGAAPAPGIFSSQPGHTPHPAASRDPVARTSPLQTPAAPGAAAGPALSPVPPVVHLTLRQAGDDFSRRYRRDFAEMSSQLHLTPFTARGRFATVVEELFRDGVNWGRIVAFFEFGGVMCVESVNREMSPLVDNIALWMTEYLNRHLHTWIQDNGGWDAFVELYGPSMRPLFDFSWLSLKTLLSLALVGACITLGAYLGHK", "assay": "Protein degradation assay in Jurkat cells (Western blot), Bcl-2", "assay_type": "cell-based", "set-up": "endogenous in cells; host or cells: Jurkat cells", "description": "as §2"}, "Bcl-xL [4]": {"biological_target": "T1, Bcl-xL", "assay": "Protein degradation assay in human platelets (Western blot), Bcl-xL", "assay_type": "cell-based", "set-up": "endogenous in cells; host or cells: human platelets", "settings": "FIG. 4, 16 h", "description": "as §2"}, "Bcl-2 [5]": {"biological_target": "T2, Bcl-2", "assay": "Protein degradation assay in human platelets (Western blot), Bcl-2", "assay_type": "cell-based", "set-up": "endogenous in cells; host or cells: human platelets", "settings": "FIG. 4, 16 h", "description": "as §2"}, "[6]": {"settings": "FIGS. 2-3, increasing concentrations 16 hours, 100 nM for various durations"}, "[7]": {"settings": "FIGS. 2C, 3C, 16 h treatment, wash-off, cultured without compound 0 to 48"}},
  "data": [
    {"smiles": "Cc1ncsc1-c1ccc([C@H](C)NC(=O)[C@@H]2C[C@@H](O)CN2C(=O)[C@@H](NC(=O)CN2CCN(CC(=O)N3CCN(C[C@]4(C)CCC(c5ccc(Cl)cc5)=C(CN5CCN(c6ccc(C(=O)NS(=O)(=O)c7ccc(N[C@H](CCN8CCCOCC8)CSc8ccccc8)c(S(=O)(=O)C(F)(F)F)c7)cc6)CC5)C4)CC3)CC2)C(C)(C)C)cc1", "note": "[Compound 77]", "values": [
      {"measurement": "IC50", "setting": "MOLT-4", "value": "< 20", "unit": "nM"},
      {"measurement": "IC50", "setting": "RS4; 11", "value": "< 20", "unit": "nM"},
      {"measurement": "ternary complex formation with the VCB E3 ligase complex and Bcl-xL", "setting": "[1]", "value": "formed ternary complexes"},
      {"measurement": "degradation of Bcl-xL (immunoblot)", "setting": "Bcl-xL [2]; [6]", "value": "dose- and time-dependently degraded"},
      {"measurement": "duration of Bcl-xL degradation after wash-off", "setting": "Bcl-xL [2]; [7]", "value": "long-lasting"},
      {"measurement": "degradation of Bcl-2 (immunoblot)", "setting": "Bcl-2 [3]; [6]", "value": "dose- and time-dependently degraded"},
      {"measurement": "duration of Bcl-2 degradation after wash-off", "setting": "Bcl-2 [3]; [7]", "value": "long-lasting"},
      {"measurement": "Bcl-xL expression levels in human platelets", "setting": "Bcl-xL [4]", "value": "do not affect"},
      {"measurement": "Bcl-2 expression levels in human platelets", "setting": "Bcl-2 [5]", "value": "do not affect"}
    ]}
  ]
}
